Measured values published in patent US20260224588A1, “BENZODIAZEPINONE-DERIVED INHIBITORS OF EGFR AND HER2” (The Research Foundation for the State University of New York, priority 2023, published 2026).
Entries after “also recorded” stand apart in the source; their conditions may differ. Where two headings read alike, the source gives them in different places.

Experiments:
[1] = target: T1, EGFR L858R/T790M kinase domain (Homo sapiens, UniProt P00533, L858R/T790M); test: HTRF-based activity assay; type: biochemical
T1 construct: The EGFR kinase domain (residues 696-1022) was cloned into pTriEx; 6xHis (N, cleaved yes); GST (N, cleaved yes); made in house; host or cells: SF9 insect cells (baculovirus)
T1 sequence (P00533 696-1022 T790M/L858R): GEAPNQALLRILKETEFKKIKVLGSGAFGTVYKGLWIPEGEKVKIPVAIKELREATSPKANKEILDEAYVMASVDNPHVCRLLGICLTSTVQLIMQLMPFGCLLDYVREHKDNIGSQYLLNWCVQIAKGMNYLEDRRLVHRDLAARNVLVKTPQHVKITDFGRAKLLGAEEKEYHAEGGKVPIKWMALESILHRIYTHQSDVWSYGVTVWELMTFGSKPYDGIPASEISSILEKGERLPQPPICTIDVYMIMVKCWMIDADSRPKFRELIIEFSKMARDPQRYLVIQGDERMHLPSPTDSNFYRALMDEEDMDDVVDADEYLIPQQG
Protocol: (§1) Protein expression and purification. The EGFR kinase domain (residues 696-1022) was cloned into pTriEx with an N-terminal 6×His-glutathione S-transferase (GST) fusion tag followed by a TEV protease cleavage site. EGFR WT, L858R, L858R/T790M, L858R/T790M/C797S was expressed after baculoviral infection in SF9 cells and EGFR(T790M/V948R) was expressed in SF21 cells. Briefly, cells were pelleted and resuspended in lysis buffer composed of 50 mM Tris pH 8.0, 500 mM NaCl, 1 mM tris(2-carboxyethyl)phosphine (TCEP), and 5% glycerol. Cells were lysed via sonication prior to ultracentrifugation at >200,000 g for 1 h. Imidazole pH 8.0 was added to the supernatant for a final concentration of 40 mM and flowed through a column containing Ni-NTA agarose beads. The resin was washed with lysis buffer supplemented with 40 mM imidazole and eluted with lysis buffer containing 200 mM imidazole. Eluted EGFR kinase domain was dialyzed overnight in the presence of 5% (w/w) TEV protease against dialysis buffer containing 50 mM Tris pH 8.0, 500 mM NaCl, 1 mM TCEP, and 5% glycerol. The cleaved protein was passed through Ni-NTA resin to remove the 6×His-GST fusion protein and TEV prior to size exclusion chromatography on a prep-grade Superdex S200 column in 50 mM Tris pH 8.0, 500 mM NaCl, 1 mM TCEP, and 5% glycerol.
(§2) HTRF Assays. Biochemical assays for EGFR domains were carried out using a homogeneous time-resolved fluorescence (HTRF) KinEASE-TK (Cisbio) assay, as described previously. Assays were optimized for ATP concentration of 100 μM with enzyme concentrations WT EGFR 10 nM, L858R 0.1 nM, L858R/T790M at 0.02 nM and L858R/T790M/C797S at 0.02 nM. Inhibitor compounds in DMSO were dispensed directly in 384-well plates with the D300 digital dispenser (Hewlett Packard) followed immediately by the addition of aqueous buffered solutions using the Multidrop Combi Reagent Dispenser (Thermo Fischer). […] The curves were fitted using a non-linear regression model with a sigmoidal dose response.

[2] = target: T2, EGFR L858R/T790M/C797S kinase domain (Homo sapiens, UniProt P00533, C797S/L858R/T790M); test: HTRF-based activity assay; type: biochemical
T2 construct: The EGFR kinase domain (residues 696-1022) was cloned into pTriEx; 6xHis (N, cleaved yes); GST (N, cleaved yes); made in house; host or cells: SF9 insect cells (baculovirus)
T2 sequence (P00533 696-1022 T790M/C797S/L858R): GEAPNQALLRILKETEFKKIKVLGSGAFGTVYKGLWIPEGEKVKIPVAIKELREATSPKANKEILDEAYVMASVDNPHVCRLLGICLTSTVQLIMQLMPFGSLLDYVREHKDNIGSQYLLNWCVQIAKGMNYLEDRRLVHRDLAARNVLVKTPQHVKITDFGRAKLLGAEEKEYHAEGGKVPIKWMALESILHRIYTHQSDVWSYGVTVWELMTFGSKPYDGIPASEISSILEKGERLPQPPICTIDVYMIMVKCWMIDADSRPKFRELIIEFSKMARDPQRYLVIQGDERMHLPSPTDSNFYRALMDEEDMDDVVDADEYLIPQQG
Protocol: as §1, §2

EGFR L858R kinase domain = target: T3, EGFR L858R kinase domain (Homo sapiens, UniProt P00533, L858R); test: HTRF-based activity assay; type: biochemical
T3 construct: The EGFR kinase domain (residues 696-1022) was cloned into pTriEx; 6xHis (N, cleaved yes); GST (N, cleaved yes); made in house; host or cells: SF9 insect cells (baculovirus)
T3 sequence (P00533 696-1022 L858R): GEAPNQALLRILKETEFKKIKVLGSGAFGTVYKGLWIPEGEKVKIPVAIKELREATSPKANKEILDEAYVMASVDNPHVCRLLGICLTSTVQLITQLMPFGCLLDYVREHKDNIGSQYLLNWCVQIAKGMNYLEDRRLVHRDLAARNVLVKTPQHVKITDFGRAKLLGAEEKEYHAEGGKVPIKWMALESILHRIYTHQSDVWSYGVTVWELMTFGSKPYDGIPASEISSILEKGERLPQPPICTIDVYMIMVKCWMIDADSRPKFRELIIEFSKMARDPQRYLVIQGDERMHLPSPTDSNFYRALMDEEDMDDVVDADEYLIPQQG
Protocol: as §1, §2

[3] = tested on: L858R EGFR mutant Ba/F3 cells; details: cited from earlier work
WT EGFR kinase domain = target: T4, WT EGFR kinase domain (Homo sapiens, UniProt P00533); test: HTRF-based activity assay; type: biochemical
T4 construct: The EGFR kinase domain (residues 696-1022) was cloned into pTriEx; 6xHis (N, cleaved yes); GST (N, cleaved yes); made in house; host or cells: SF9 insect cells (baculovirus)
T4 sequence (P00533 696-1022): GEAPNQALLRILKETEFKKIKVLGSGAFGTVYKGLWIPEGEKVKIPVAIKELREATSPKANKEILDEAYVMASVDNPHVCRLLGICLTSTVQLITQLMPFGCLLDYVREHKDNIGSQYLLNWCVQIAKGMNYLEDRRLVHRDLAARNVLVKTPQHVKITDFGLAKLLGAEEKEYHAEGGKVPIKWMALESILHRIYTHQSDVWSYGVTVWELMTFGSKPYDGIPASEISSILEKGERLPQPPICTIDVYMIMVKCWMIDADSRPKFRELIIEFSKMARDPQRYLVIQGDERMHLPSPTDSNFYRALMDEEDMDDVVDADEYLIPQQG
Protocol: as §1, §2

[4] = tested on: EGFR (L858R/T790M) in H1975 lung cancer cells; test: Western blotting of EGFR, ERK1/2 and AKT phosphorylation; type: cell-based, human; details: 6 hours treatment
Protocol: FIG. 2. […] All experiments performed after 6 hours treatments of inhibitors or DMSO controls and Western blots are representative of at least three independent experiments.
Western blotting. Cells were collected and lysed with lysis buffer (5M NaCl, 1M TRIS pH 8.0, 10% SDS, 10% Triton X-100 and a tablet of protease inhibitors) and processed for Western blotting analysis. Primary antibodies used; phospho-EGFR (Tyr1068; #2234, 1:1,000), EGFR (#4267; 1:1,000), phospho-AKT (Ser473; #4060, 1:1,000), AKT (#9272, 1:1,000), phospho-ERK1/2 (Thr202/Tyr204; #4370, 1:1,000), and ERK1/2 (#4695, 1:1,000) antibodies; were purchased from Cell Signaling Technology. Secondary Goat anti-rabbit IgG starbright blue 700 and Anti-tubulin hFAB Rhodamine Tubulin were purchased from Bio-rad.

[5] = tested on: wildtype HER2 Ba/F3 cells; details: from Heppner et al. 2022, read-out: Anti-proliferative EC50 ± SE, HER2; cited from earlier work
[6] = tested on: L858R/T790M EGFR mutant Ba/F3 cells; details: from literature (footnotes a, c), read-out: Anti-proliferative EC50 ± SE, LR/TM; cited from earlier work
[7] = tested on: wildtype EGFR Ba/F3 cells; details: from literature (footnotes a, c), read-out: Anti-proliferative EC50 ± SE, wt; cited from earlier work
[8] = 100 μM ATP, enzyme 0.02 nM, read-out: Biochemical EGFR IC50, LRTM
[9] = 100 μM ATP, enzyme 0.02 nM, read-out: Biochemical EGFR IC50, LRTMCS
[10] = 100 μM ATP, enzyme 0.1 nM, read-out: Biochemical EGFR IC50, LR
[11] = from literature (footnotes a, c), read-out: Anti-proliferative EC50 ± SE, LR

IC50 [1, 8]	IC50 [2, 9]	IC50 (EGFR L858R kinase domain; [10])	Structure (SMILES)	EC50 [3, 11]	other results
0.051 ± 0.005 nM	0.063 ± 0.005 nM	1.2 ± 0.09 nM	CCc1nc(-c2cccc(NC(=O)c3cccc4c3NC(=O)c3ccccc3N4)c2)c(-c2ccnc(NC(C)=O)c2)[nH]1 [Compound 3, N-(3-(5-(2-Acetamidopyridin-4-yl)-2-ethyl-1H-imidazol-4-yl)phenyl)-11-oxo-10,11-dihydro-5H-dibenzo[b,e][1,4]diazepine-9-carboxamide]	–	–
–	–	1300 ± 100 nM	CSc1nc(-c2cccc(CN3C(=O)c4ccccc4Nc4ccc(F)cc43)c2)c(-c2ccnc(NC(C)=O)c2)[nH]1 [Compound 1, N-(4-(4-(3-((8-Fluoro-11-oxo-5,11-dihydro-10H-dibenzo[b,e][1,4]diazepin-10-yl)methyl)phenyl)-2-(methylthio)-1H-imidazol-5-yl)pyridin-2-yl) acetamide]	–	IC50 ([1]; read-out: IC50 values, LRTM): > 1000 nM; IC50 ([2]; read-out: IC50 values, LRTMCS): > 1000 nM; IC50 (EGFR L858R kinase domain; read-out: IC50 values, LR): > 1000 nM; IC50 (WT EGFR kinase domain; read-out: IC50 values, WT EGFR): > 1000 nM
0.87 ± 0.09 nM	1 ± 0.1 nM	1.1 ± 0.2 nM	CCc1nc(-c2cccc(NC(=O)c3cccc4c3NC(=O)c3ccccc3N4)c2)c(-c2ccnc(Nc3ccccc3)c2)[nH]1 [Compound 5, N-(3-(2-ethyl-5-(2-(phenylamino)pyridin-4-yl)-1H-imidazol-4-yl)phenyl)-11-oxo-10,11-dihydro-5H-dibenzo[b,e][1,4]diazepine-9-carboxamide]	–	IC50 (WT EGFR kinase domain; 100 μM ATP, enzyme 10 nM, read-out: Biochemical EGFR IC50, wt): < 10 nM

Continued, compound first:

Structure (SMILES)	IC50 [1, 8]	IC50 [2, 9]	IC50 (EGFR L858R kinase domain; [10])	EC50 [3, 11]	other results
O=C1c2ccccc2Nc2ccc(F)cc2N1Cc1ccccc1 [DDC4002]	–	–	–	> 10000 nM	EC50 ([3]; experiments that include cetuximab, from De Clercq and Heppner et al. 2019, read-out: Anti-proliferative EC50 ± SE, LR): > 10000 nM
CSc1nc(-c2cccc(NC(=O)c3cccc4c3NC(=O)c3ccccc3N4)c2)c(-c2ccnc(NC(C)=O)c2)[nH]1 [Compound 2, N-(3-(5-(2-Acetamidopyridin-4-yl)-2-(methylthio)-1H-imidazol-4-yl)phenyl)-11-oxo-10,11-dihydro-5H-dibenzo[b,e][1,4]diazepine-9-carboxamide]	0.059 ± 0.005 nM	0.064 ± 0.004 nM	1.5 ± 0.1 nM	–	EGFR, ERK1/2 and AKT phosphorylation (Western blot) [4]: less effective; also recorded: suppresses EGFR phosphorylation
C=CC(=O)Nc1cc(Nc2nccc(-c3cn(C)c4ccccc34)n2)c(OC)cc1N(C)CCN(C)C [Osimertinib]	–	–	–	3.3 ± 0.6 nM	EC50 [5]: 34 ± 8 nM; EC50 [6]: 8 nM; EC50 [7]: 110 ± 40 nM
